According to PubChem BioAssay AID463223 (The Scripps Research Institute Molecular Screening Center, 2010):
The source made the active and inactive calls. How the calls were made is not given here.

Target: Serine/threonine-protein phosphatase 5 (Homo sapiens) (UniProt P53041)
Assay: PP5 inhibitors on phosphohistone substrate, late-stage follow-up, PP5 inhibitor project, biochemical, radiolabel, single concentration (AID 463223)
Conditions: purified PP5c, 33P-phosphohistone radiolabel assay, scintillation counting, 10 min; at 10 µM; stronger effect = higher value

Chain of Serine/threonine-protein phosphatase 5 (Homo sapiens) (P53041 whole entry, looked up): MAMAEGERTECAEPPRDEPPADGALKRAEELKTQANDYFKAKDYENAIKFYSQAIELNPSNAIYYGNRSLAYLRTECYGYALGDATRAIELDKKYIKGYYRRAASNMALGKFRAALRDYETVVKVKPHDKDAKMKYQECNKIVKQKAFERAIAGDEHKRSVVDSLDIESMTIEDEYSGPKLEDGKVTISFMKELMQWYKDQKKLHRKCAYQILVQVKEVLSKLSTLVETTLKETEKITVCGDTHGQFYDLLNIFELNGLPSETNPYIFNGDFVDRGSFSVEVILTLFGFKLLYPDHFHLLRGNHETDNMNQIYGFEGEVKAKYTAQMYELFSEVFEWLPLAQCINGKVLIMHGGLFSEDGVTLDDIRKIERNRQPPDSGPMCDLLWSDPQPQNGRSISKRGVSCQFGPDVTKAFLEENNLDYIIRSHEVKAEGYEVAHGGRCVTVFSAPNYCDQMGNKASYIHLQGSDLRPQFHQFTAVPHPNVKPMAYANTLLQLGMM

SMILES	inhibition
COc1ccc(Cl)cc1C(=O)Nc1cccc(-c2ccc3nncn3n2)c1	-1.12% (inactive)
O=C(Nc1nc(-c2ccccn2)cs1)C1CC(=O)N(c2ccc3c(c2)OCCO3)C1 (centres undefined)	-3.02% (inactive)
O=C(NC1(O)C(=O)c2ccccc2C1=O)c1ccccc1	1.84% (inactive)
COc1ccc(Cn2c(N)c(C(=O)NCc3ccco3)c3nc4ccccc4nc32)cc1OC	0.41% (inactive)
O=c1[nH]c(Nc2ccccc2)cc2ccccc12	0.47% (inactive)
CCOC(=O)C1=C(C)OC2(O)c3ccccc3C(=O)C12O (centres undefined)	-1.47% (inactive)
CCOC(=O)c1sc2nc3c(SCC(=O)O)cc(C(=O)c4cc(F)ccc4O)cn3c(=O)c2c1C	14.5% (inactive)
c1ccc(-c2nccc(-c3ccc(-n4cnc5ccccc54)cc3)n2)nc1	9.23% (inactive)
COc1cnc(-c2ccccn2)nc1Sc1ccc(F)cc1	-3.12% (inactive)
CCCN(CC1CC1)c1nc(N)c2c(N)nc(OC)cc2c1C#N	0.96% (inactive)
CCOc1ccc(NC(=S)Nc2ccc3nsnc3c2)cc1	-0.34% (inactive)
O=C(O)c1cc(-c2ccc(Cl)c(Cl)c2)n(-c2ccccc2)n1	0.56% (inactive)
Cc1[nH]n(-c2ccccc2)c(=O)c1C(c1ccc([N+](=O)[O-])cc1)c1c(C)[nH]n(-c2ccccc2)c1=O	3.51% (inactive)
Oc1ccccc1/C=N/Nc1cc(N2CCCC2)nc(N2CCCC2)n1	3.34% (inactive)
CCOC(=O)c1nn(-c2ccc(C)cc2)c(=O)c2c(N)scc12	0.85% (inactive)
COc1cnc(-c2ccccn2)nc1Sc1ccccc1	-1.46% (inactive)
CCCCN(CC)c1nc(N)c2c(N)nc(OCC)cc2c1C#N	2.68% (inactive)
CC(C)(CS(=O)(=O)[O-])NC(=O)CC[N+](C)(C)CCO	2.71% (inactive)
O=C(O)C1C2CCC(O2)C1C(=O)NC1CCCCC1 (centres undefined)	45.9%
COc1ccc(CN2C(=O)Cc3c2nc(N)c2c(N)nc(N4CCCCC4)c(C#N)c32)cc1	-2.57% (inactive)
CC(=O)C(C(C)=O)C1(O)C(=O)c2ccccc2C1=O	2.52% (inactive)
O=S(=O)(Cc1cc(NCc2ccccc2)nc(-c2ccccn2)n1)c1ccccc1	8.88% (inactive)

SMILES	inhibition
Cc1ccc(-n2nc(C(=O)O)cc2-c2ccc(Cl)cc2)cc1	1.91% (inactive)
O=C1CCCC2=C1C1(O)C(=O)c3ccccc3C1(O)O2 (centres undefined)	4.95% (inactive)
Cc1nnc(NC(=O)C2C3C=CC(O3)C2C(=O)O)s1 (centres undefined)	16%
COc1cnc(-c2ccccn2)nc1Sc1ccccc1Cl	0.33% (inactive)
O=C(O)c1cc(-c2ccc(Cl)c(Cl)c2)n(-c2ccc(F)cc2)n1	-0.91% (inactive)
Clc1ccc(-n2nnnc2-c2cnc(-c3ccccn3)nc2-c2cccs2)cc1	-0.04% (inactive)
CCOC(=O)c1cnc(-n2cc(C)cn2)nc1NCc1ccc2c(c1)OCO2	-0.82% (inactive)
CCCCn1c(NC(=O)c2ccco2)c(C(=O)OCC)c2nc3ccccc3nc21	2.8% (inactive)
N#Cc1c(N2CCCC(O)C2)nc(N)c2c(N)nc3c(c12)CC(=O)N3C12CC3CC(CC(C3)C1)C2 (centres undefined)	-0.93% (inactive)
COc1cnc(-c2ccccn2)nc1Oc1cccc(C(F)(F)F)c1	-2.17% (inactive)
COc1cnc(-c2ccccn2)nc1Sc1cccc(Cl)c1	-0.66% (inactive)
COc1ccc(NC(=S)Nc2ccc3nsnc3c2)cc1	-2.27% (inactive)
COc1ccc(NC(=O)C2C3CCC(O3)C2C(=O)O)c(OC)c1 (centres undefined)	49.1%
Cc1ccc(C(=O)NC2(O)C(=O)c3ccccc3C2=O)cc1C	2.14% (inactive)
COc1ccccc1Sc1nc(-c2ccccn2)ncc1OC	-2.42% (inactive)
CCOC(=O)c1sc(N2C(=O)C(O)=C(C(=O)c3ccco3)C2c2cccc([N+](=O)[O-])c2)nc1C (centres undefined)	9.04% (inactive)
COc1cnc(-c2ccccn2)nc1Sc1ccc(Cl)cc1	-3.05% (inactive)
CN1CCN(C(c2ccccn2)c2cc(Cl)c3cccnc3c2O)CC1 (centres undefined)	-2.91% (inactive)
O=C(NC1(O)C(=O)c2ccccc2C1=O)c1ccc(C(F)(F)F)cc1	-0.52% (inactive)
CCOC(=O)c1cnc(-n2nc(C)cc2C)nc1NC1CCCCC1	1.15% (inactive)
CCOC(=O)c1cnc(-n2nc(C)cc2C)nc1NC(C)c1ccccc1 (centres undefined)	0.17% (inactive)
O=C(NC1(O)C(=O)c2ccccc2C1=O)c1c(Cl)cccc1Cl	-1.34% (inactive)

SMILES	inhibition
Oc1cccc(/C=N/Nc2cc(N3CCCC3)nc(N3CCCC3)n2)c1	1.73% (inactive)
Cc1ccc(C(=O)NNc2cc(N3CCCC3)nc(N3CCCC3)n2)cc1	0.83% (inactive)
CCOC(=O)c1cnc(-n2nc(C)cc2C)nc1NCc1ccccc1	3.11% (inactive)
Nc1cc2nsnc2cc1Br	1.86% (inactive)
Oc1ccc(/C=N/Nc2cc(N3CCOCC3)nc(N3CCOCC3)n2)c(O)c1	0.87% (inactive)
COc1cnc(-c2ccccn2)nc1Oc1cccc(Cl)c1	-1.35% (inactive)
CCOC(=O)c1cnc(-n2nc(C)cc2C)nc1NCCc1ccccc1	0.06% (inactive)
O=C1Nc2ccccc2N2CCCC12 (centres undefined)	-0.58% (inactive)
O=C(O)c1n[nH]nc1-c1ccccc1	31.1%
CCn1c2ccccc2c2cc(NC(=O)COC(=O)c3ccc(NC(=O)CC#N)cc3)ccc21	-0.66% (inactive)
N#Cc1c(-c2ccc(Cl)cc2)cc(-c2cccs2)nc1SCC(=O)O	12.1% (inactive)
COc1ccc(Sc2nc(-c3ccccn3)ncc2OC)cc1	1.12% (inactive)
COc1ccc(OCCCC(=O)Nc2nc(-c3ccccn3)cs2)cc1	-1.62% (inactive)
c1ccc(Nc2nc(-c3ccccn3)cs2)cc1	-1.08% (inactive)
O=C(O)c1cc(-c2ccc(Cl)cc2)n(-c2cccc(Cl)c2)n1	2.43% (inactive)
COc1cnc(-c2ccccn2)nc1Sc1ccc(C)cc1	-1.26% (inactive)
Nc1nc(-c2ccccn2)nc(N)c1Cc1ccc(Cl)cc1Cl	-1.92% (inactive)
COc1ccc2c(Cl)c(C(=O)N/N=C/c3ccc4c(c3)OCO4)sc2c1	-0.4% (inactive)
COc1cc(Br)c(C(=O)c2nccc3cc(OC)c(OC)cc23)cc1OC	1.9% (inactive)
COc1ccc(C(=O)c2nccc3cc(OC)c(OC)cc23)cc1OC	1.93% (inactive)
